Data on seven molecules can be found in ChEMBL document CHEMBL3046940, “Microwave-assisted synthesis of novel 4H-chromene derivatives bearing 2-aryloxyquinoline and their antimicrobial activity assessment” (2013).

Values after ≈ are worked out from the molar mass of the structure shown.

What is called MIC is the smallest concentration in the dilution series that meets the test's criterion for growth inhibition.

The subject of the first assay is Vibrio cholerae. Description: Antimicrobial activity against Vibrio cholerae MTCC 3906 assessed as growth inhibition after 24-48 hr by NCCLS broth microdilution method. In kind it is functional. For orientation: In broth dilution the organism is exposed to a series of concentrations in liquid medium.
In the case of `O=C(O)c1cn(C2CC2)c2cc(N3CCNCC3)c(F)cc2c1=O` [CIPROFLOXACIN], the MIC came to 25 µg/mL (≈ 75.4 µM).

For `Cc1ccc(Oc2nc3ccccc3cc2C2C(C#N)=C(N)OC3=C2C(=O)CCC3)cc1` (stereo not drawn), the minimal inhibitory concentration (MIC) was found to be 200 µg/mL (≈ 472 µM).

As to `N#CC1=C(N)OC2=C(C(=O)CCC2)C1c1cc2ccccc2nc1Oc1ccccc1` (stereo not drawn), the minimum inhibitory concentration (MIC) is 250 µg/mL (≈ 611 µM).

For `CCn1cc(C(=O)O)c(=O)c2cc(F)c(N3CCNCC3)cc21` [NORFLOXACIN], the MIC came to 10 µg/mL (≈ 31.3 µM).

For the molecule `CC1(C)S[C@@H]2[C@H](NC(=O)[C@H](N)c3ccccc3)C(=O)N2[C@H]1C(=O)O` [AMPICILLIN], the MIC is 100 µg/mL (≈ 286 µM).

`COc1ccc2nc(Oc3ccccc3)c(C3C(C#N)=C(N)OC4=C3C(=O)CC(C)(C)C4)cc2c1` (stereo not drawn): the MIC came out at 200 µg/mL (≈ 428 µM).

Regarding `COc1ccc(Oc2nc3ccccc3cc2C2C(C#N)=C(N)OC3=C2C(=O)CCC3)cc1` (stereo not drawn), the minimal inhibitory concentration (MIC) amounted to 100 µg/mL (≈ 228 µM).

In a further assay the test system is Bacillus subtilis. Kind of assay: Antimicrobial activity against Bacillus subtilis MTCC 441 assessed as growth inhibition after 24-48 hr by NCCLS broth microdilution method. In kind it is functional.
Consider `Cc1ccc(Oc2nc3ccccc3cc2C2C(C#N)=C(N)OC3=C2C(=O)CCC3)cc1` (stereo not drawn), for which the minimal inhibitory concentration (MIC) came to 1000 µg/mL (≈ 2360 µM).

For the molecule `N#CC1=C(N)OC2=C(C(=O)CCC2)C1c1cc2ccccc2nc1Oc1ccccc1` (stereo not drawn), the MIC came out at 250 µg/mL (≈ 611 µM).

For the molecule `CCn1cc(C(=O)O)c(=O)c2cc(F)c(N3CCNCC3)cc21` [NORFLOXACIN], the minimal inhibitory concentration (MIC) stood at 100 µg/mL (≈ 313 µM).

Turning to `CC1(C)S[C@@H]2[C@H](NC(=O)[C@H](N)c3ccccc3)C(=O)N2[C@H]1C(=O)O` [AMPICILLIN], the MIC was found to be 250 µg/mL (≈ 715 µM).

On to `COc1ccc2nc(Oc3ccccc3)c(C3C(C#N)=C(N)OC4=C3C(=O)CC(C)(C)C4)cc2c1` (stereo not drawn), for which the MIC worked out at 500 µg/mL (≈ 1070 µM).

In the case of `COc1ccc(Oc2nc3ccccc3cc2C2C(C#N)=C(N)OC3=C2C(=O)CCC3)cc1` (stereo not drawn), the minimum inhibitory concentration (MIC) amounted to 200 µg/mL (≈ 455 µM).

Another assay concerns Escherichia coli. Description: Antimicrobial activity against Escherichia coli MTCC 443 assessed as growth inhibition after 24-48 hr by NCCLS broth microdilution method. Format: functional.
On to `O=C(O)c1cn(C2CC2)c2cc(N3CCNCC3)c(F)cc2c1=O` [CIPROFLOXACIN], for which the minimal inhibitory concentration (MIC) was 25 µg/mL (≈ 75.4 µM).

As to `Cc1ccc(Oc2nc3ccccc3cc2C2C(C#N)=C(N)OC3=C2C(=O)CCC3)cc1` (stereo not drawn), the MIC turned out to be 250 µg/mL (≈ 590 µM).

For `N#CC1=C(N)OC2=C(C(=O)CCC2)C1c1cc2ccccc2nc1Oc1ccccc1` (stereo not drawn), the MIC is 100 µg/mL (≈ 244 µM).

For `CCn1cc(C(=O)O)c(=O)c2cc(F)c(N3CCNCC3)cc21` [NORFLOXACIN], the MIC was found to be 10 µg/mL (≈ 31.3 µM).

In the case of `CC1(C)S[C@@H]2[C@H](NC(=O)[C@H](N)c3ccccc3)C(=O)N2[C@H]1C(=O)O` [AMPICILLIN], the minimal inhibitory concentration (MIC) was 100 µg/mL (≈ 286 µM).

On to `COc1ccc2nc(Oc3ccccc3)c(C3C(C#N)=C(N)OC4=C3C(=O)CC(C)(C)C4)cc2c1` (stereo not drawn), for which the minimum inhibitory concentration (MIC) amounted to 200 µg/mL (≈ 428 µM).

Turning to `COc1ccc(Oc2nc3ccccc3cc2C2C(C#N)=C(N)OC3=C2C(=O)CCC3)cc1` (stereo not drawn), the MIC amounted to 150 µg/mL (≈ 341 µM).

The subject of a further assay is Candida albicans. Description: Antimicrobial activity against Candida albicans MTCC 227 assessed as growth inhibition after 24-48 hr by NCCLS broth microdilution method. In kind it is functional.
On to `Cc1ccc(Oc2nc3ccccc3cc2C2C(C#N)=C(N)OC3=C2C(=O)CCC3)cc1` (stereo not drawn), for which the MIC stood at 500 µg/mL (≈ 1180 µM).

On to `N#CC1=C(N)OC2=C(C(=O)CCC2)C1c1cc2ccccc2nc1Oc1ccccc1` (stereo not drawn), for which the MIC came out at 500 µg/mL (≈ 1220 µM).

With `COc1ccc2nc(Oc3ccccc3)c(C3C(C#N)=C(N)OC4=C3C(=O)CC(C)(C)C4)cc2c1` (stereo not drawn), the MIC stood at 500 µg/mL (≈ 1070 µM).

Turning to `COc1ccc(Oc2nc3ccccc3cc2C2C(C#N)=C(N)OC3=C2C(=O)CCC3)cc1` (stereo not drawn), the MIC was found to be 1000 µg/mL (≈ 2280 µM).

In a further assay the test system is Salmonella typhi. Kind of assay: Antimicrobial activity against Salmonella enterica subsp. enterica serovar Typhi MTCC 98 assessed as growth inhibition after 24-48 hr by NCCLS broth microdilution method. Format: functional.
For `O=C(O)c1cn(C2CC2)c2cc(N3CCNCC3)c(F)cc2c1=O` [CIPROFLOXACIN], the minimum inhibitory concentration (MIC) was 25 µg/mL (≈ 75.4 µM).

On to `Cc1ccc(Oc2nc3ccccc3cc2C2C(C#N)=C(N)OC3=C2C(=O)CCC3)cc1` (stereo not drawn), for which the minimum inhibitory concentration (MIC) stood at 500 µg/mL (≈ 1180 µM).

With `N#CC1=C(N)OC2=C(C(=O)CCC2)C1c1cc2ccccc2nc1Oc1ccccc1` (stereo not drawn), the MIC amounted to 250 µg/mL (≈ 611 µM).

Take `CCn1cc(C(=O)O)c(=O)c2cc(F)c(N3CCNCC3)cc21` [NORFLOXACIN]: the MIC is 10 µg/mL (≈ 31.3 µM).

In the case of `CC1(C)S[C@@H]2[C@H](NC(=O)[C@H](N)c3ccccc3)C(=O)N2[C@H]1C(=O)O` [AMPICILLIN], the MIC worked out at 100 µg/mL (≈ 286 µM).

As for `COc1ccc2nc(Oc3ccccc3)c(C3C(C#N)=C(N)OC4=C3C(=O)CC(C)(C)C4)cc2c1` (stereo not drawn), the minimum inhibitory concentration (MIC) came to 500 µg/mL (≈ 1070 µM).

Turning to `COc1ccc(Oc2nc3ccccc3cc2C2C(C#N)=C(N)OC3=C2C(=O)CCC3)cc1` (stereo not drawn), the MIC was 250 µg/mL (≈ 569 µM).

In a further assay the test system is Clostridium tetani. Description: Antimicrobial activity against Clostridium tetani MTCC 449 assessed as growth inhibition after 24-48 hr by NCCLS broth microdilution method. Format: functional.
On to `Cc1ccc(Oc2nc3ccccc3cc2C2C(C#N)=C(N)OC3=C2C(=O)CCC3)cc1` (stereo not drawn), for which the MIC came out at 500 µg/mL (≈ 1180 µM).

As to `N#CC1=C(N)OC2=C(C(=O)CCC2)C1c1cc2ccccc2nc1Oc1ccccc1` (stereo not drawn), the MIC came to 250 µg/mL (≈ 611 µM).

Turning to `CCn1cc(C(=O)O)c(=O)c2cc(F)c(N3CCNCC3)cc21` [NORFLOXACIN], the MIC was found to be 50 µg/mL (≈ 157 µM).

Consider `CC1(C)S[C@@H]2[C@H](NC(=O)[C@H](N)c3ccccc3)C(=O)N2[C@H]1C(=O)O` [AMPICILLIN], for which the minimum inhibitory concentration (MIC) was found to be 250 µg/mL (≈ 715 µM).

Regarding `COc1ccc2nc(Oc3ccccc3)c(C3C(C#N)=C(N)OC4=C3C(=O)CC(C)(C)C4)cc2c1` (stereo not drawn), the MIC amounted to 100 µg/mL (≈ 214 µM).

In the case of `COc1ccc(Oc2nc3ccccc3cc2C2C(C#N)=C(N)OC3=C2C(=O)CCC3)cc1` (stereo not drawn), the MIC stood at 1000 µg/mL (≈ 2280 µM).

In the next assay the test system is Aspergillus fumigatus. Kind of assay: Antimicrobial activity against Aspergillus fumigatus MTCC 3008 assessed as growth inhibition after 24-48 hr by NCCLS broth microdilution method. Format: functional.
Turning to `Cc1ccc(Oc2nc3ccccc3cc2C2C(C#N)=C(N)OC3=C2C(=O)CCC3)cc1` (stereo not drawn), the MIC was 500 µg/mL (≈ 1180 µM).

`N#CC1=C(N)OC2=C(C(=O)CCC2)C1c1cc2ccccc2nc1Oc1ccccc1` (stereo not drawn): the MIC stood at 1000 µg/mL (≈ 2440 µM).

Consider `COc1ccc2nc(Oc3ccccc3)c(C3C(C#N)=C(N)OC4=C3C(=O)CC(C)(C)C4)cc2c1` (stereo not drawn), for which the MIC came to 1000 µg/mL (≈ 2140 µM).

On to `COc1ccc(Oc2nc3ccccc3cc2C2C(C#N)=C(N)OC3=C2C(=O)CCC3)cc1` (stereo not drawn), for which the MIC was over 1000 µg/mL.

The subject of the next assay is Streptococcus pneumoniae. Kind of assay: Antimicrobial activity against Streptococcus pneumoniae MTCC 1936 assessed as growth inhibition after 24-48 hr by NCCLS broth microdilution method. In kind it is functional.
As for `O=C(O)c1cn(C2CC2)c2cc(N3CCNCC3)c(F)cc2c1=O` [CIPROFLOXACIN], the MIC turned out to be 50 µg/mL (≈ 151 µM).

Regarding `Cc1ccc(Oc2nc3ccccc3cc2C2C(C#N)=C(N)OC3=C2C(=O)CCC3)cc1` (stereo not drawn), the minimal inhibitory concentration (MIC) came out at 500 µg/mL (≈ 1180 µM).

As for `N#CC1=C(N)OC2=C(C(=O)CCC2)C1c1cc2ccccc2nc1Oc1ccccc1` (stereo not drawn), the MIC was determined as 250 µg/mL (≈ 611 µM).

Take `CCn1cc(C(=O)O)c(=O)c2cc(F)c(N3CCNCC3)cc21` [NORFLOXACIN]: the minimal inhibitory concentration (MIC) stood at 10 µg/mL (≈ 31.3 µM).

For the molecule `CC1(C)S[C@@H]2[C@H](NC(=O)[C@H](N)c3ccccc3)C(=O)N2[C@H]1C(=O)O` [AMPICILLIN], the MIC came out at 100 µg/mL (≈ 286 µM).

On to `COc1ccc2nc(Oc3ccccc3)c(C3C(C#N)=C(N)OC4=C3C(=O)CC(C)(C)C4)cc2c1` (stereo not drawn), for which the MIC came out at 500 µg/mL (≈ 1070 µM).

Regarding `COc1ccc(Oc2nc3ccccc3cc2C2C(C#N)=C(N)OC3=C2C(=O)CCC3)cc1` (stereo not drawn), the MIC was 100 µg/mL (≈ 228 µM).
